PubChem BioAssay (NCI)
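Protocol summary: plate cells (96-well), add compound at 5 concentrations, incubate 48 h, interpolate endpoints linearly. At the TGI there is no net growth.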

Key:
Assay in all cases: growth of human tumour cells (NCI), 48 h
[1] = system: UO-31 renal
[2] = system: NCI-H23 lung
[3] = system: A549 NSCLC
[4] = system: CAKI-1 renal
[5] = system: HS 578T breast
[6] = system: T-47D breast
[7] = system: SF-539 CNS
[8] = system: K-562 leukemia
[9] = system: MDA-MB-435
[10] = system: OVCAR-8 ovarian
[11] = system: DU-145 prostate
[12] = system: SF-295 CNS
[13] = system: HOP-92 NSCLC
[14] = system: KM12 colon
[15] = system: IGROV1 ovarian
[16] = system: UACC-257 melanoma
[17] = system: SNB-19 CNS
[18] = system: NCI-H226 lung
[19] = system: CCRF-CEM leukemia
[20] = system: NCI-H522 lung
[21] = system: MCF7 breast
[22] = system: SF-268 CNS
[23] = system: EKVX NSCLC
[24] = system: MALME-3M melanoma
[25] = system: NCI/ADR-RES ovarian
[26] = system: HCT-15 colon
[27] = system: UACC-62 melanoma
[28] = system: SK-MEL-5 melanoma
[29] = system: TK-10 renal
[30] = system: HCC-2998 colon
[31] = system: RPMI-8226 leukemia
[32] = system: SK-MEL-2 melanoma
[33] = system: NCI-H460 lung
[34] = system: 786-0 renal
[35] = system: HOP-62 NSCLC
[36] = system: SK-OV-3 ovarian
[37] = system: MOLT-4 leukemia
[38] = system: BT-549 breast
[39] = system: A498 renal
[40] = system: COLO 205 colon
[41] = system: SK-MEL-28 melanoma
[42] = system: OVCAR-4 ovarian
[43] = system: RXF 393 renal
[44] = system: OVCAR-3 ovarian
[45] = system: HL-60(TB) leukemia
[46] = system: OVCAR-5 ovarian
[47] = system: MDA-MB-231 breast
[48] = system: HT29 colon
[49] = system: MDA-N
[50] = system: U251 CNS
[51] = system: M14 melanoma
[52] = system: SW-620 colon
[53] = system: SN12C renal
[54] = system: PC-3 prostate
[55] = system: HCT-116 colon
[56] = system: ACHN renal
[57] = system: LOX IMVI melanoma

Measured: TGI

CCCCCc1cccc(=O)o1
> 100 µM: all assays above
